Assay results: patent US10544150B2, “NK-3 receptor selective antagonist compounds, pharmaceutical composition and methods for use in NK-3 receptors mediated disorders” (Ogeda SA, priority 2010, dated 2020)
pKi: −log10 of the molar value.

Molecular target: human NK-3 receptor (Homo sapiens (Human), UniProt P29371)
Assay: 3H-SB222200 binding competition assay with human NK-3 receptor
Conditions: 3H-SB222200 displacement, CHO cell membranes expressing human NK3 receptor; read-out: Ki range
Procedure, shortened: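 Membranes from CHO cells expressing human NK3 receptor incubated with 5 nM 3H-SB222200 and test compound in HEPES 25 mM/NaCl 0.1M/CaCl2 1 mM/MgCl2 5 mM/BSA 0.5%/saponin 10 μg/ml, pH 7.4. Bound radioligand counted after filtration; Ki calculated, reported in bands (+++ <500 nM to # >5 μM).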

Chain of human NK-3 receptor (P29371 whole entry): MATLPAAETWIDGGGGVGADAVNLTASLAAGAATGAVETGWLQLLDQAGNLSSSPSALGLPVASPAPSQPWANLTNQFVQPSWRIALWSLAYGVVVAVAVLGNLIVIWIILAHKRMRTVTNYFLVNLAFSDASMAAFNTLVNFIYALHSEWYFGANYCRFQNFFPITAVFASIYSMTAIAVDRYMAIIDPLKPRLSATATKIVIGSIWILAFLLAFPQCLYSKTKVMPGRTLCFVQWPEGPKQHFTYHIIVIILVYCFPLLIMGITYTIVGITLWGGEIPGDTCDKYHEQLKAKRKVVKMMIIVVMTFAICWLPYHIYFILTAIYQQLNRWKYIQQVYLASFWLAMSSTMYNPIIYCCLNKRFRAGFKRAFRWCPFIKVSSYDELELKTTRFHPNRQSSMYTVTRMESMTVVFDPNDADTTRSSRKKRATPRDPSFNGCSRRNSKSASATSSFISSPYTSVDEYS

| Compound | pKi |
| --- | --- |
| Cc1scnc1-c1nnc2n1CCN(C(=O)c1ccc(-c3cccs3)cc1)C2 [Compound 275, (3-(5-methylthiazol-4-yl)-5,6-dihydro-[1,2,4]triazolo[4,3-a]pyrazin-7(8H)-yl)(4-(thiophen-2-yl)phenyl)methanone] | < 5.30 |
| Cc1cccc(-c2nnc3n2CCN(C(=O)c2ccc(F)cc2)C3C)n1 (stereo not drawn) [Compound 278, (4-fluorophenyl)(8-methyl-3-(6-methylpyridin-2-yl)-5,6-dihydro-[1,2,4]triazolo[4,3-a]pyrazin-7(8H)-yl)methanone] | > 6.30 |
| O=C(c1ccc(-c2cccs2)cc1)N1CCn2c(nnc2-c2csc(-c3ccccc3OCCO)n2)C1 [Compound 281, (3-(2-(2-(2-hydroxyethoxy)phenyl)thiazol-4-yl)-5,6-dihydro-[1,2,4]triazolo[4,3-a]pyrazin-7(8H)-yl)(4-(thiophen-2-yl)phenyl)methanone] | > 6.30 |
| CS(=O)(=O)Nc1ccc(-c2nc(-c3nnc4n3CCN(C(=O)c3ccc(-c5cccs5)cc3)C4)cs2)cc1 [Compound 283, N-(4-(4-(7-(4-(thiophen-2-yl)benzoyl)-5,6,7,8-tetrahydro-[1,2,4]triazolo[4,3-a]pyrazin-3-yl)thiazol-2-yl)phenyl)methanesulfonamide] | 6.00 to 6.30 |
| O=C(c1ccc(-c2cccs2)cc1)N1CCn2c(nnc2-c2cc(-c3ccccc3)n(CCO)n2)C1 [Compound 285, (3-(1-(2-hydroxyethyl)-5-phenyl-1H-pyrazol-3-yl)-5,6-dihydro-[1,2,4]triazolo[4,3-a]pyrazin-7(8H)-yl)(4-(thiophen-2-yl)phenyl)methanone] | > 6.30 |

The remaining lines, values ahead:

| pKi | Compound |
| --- | --- |
| 6.00 to 6.30 | CC1(C)CCN(c2nc(-c3nnc4n3CCN(C(=O)c3ccc(-c5cccs5)cc3)C4)cs2)CC1 [Compound 274, (3-(2-(4,4-dimethylpiperidin-1-yl)thiazol-4-yl)-5,6-dihydro-[1,2,4]triazolo[4,3-a]pyrazin-7(8H)-yl)(4-(thiophen-2-yl)phenyl)methanone] |
| < 5.30 | CC1(C)CCN(c2nc(-c3nnc4n3CCN(C(=O)c3ccc(F)cc3)C4)cs2)CC1 [Compound 276, (3-(2-(4,4-dimethylpiperidin-1-yl)thiazol-4-yl)-5,6-dihydro-[1,2,4]triazolo[4,3-a]pyrazin-7(8H)-yl)(4-fluorophenyl)methanone] |
| < 5.30 | COCC1CCCCN1c1nc(-c2nnc3n2CCN(C(=O)c2ccc(F)cc2)C3)cs1 (stereo not drawn) [Compound 277, (4-fluorophenyl)(3-(2-(2-(methoxymethyl)piperidin-1-yl)thiazol-4-yl)-5,6-dihydro-[1,2,4]triazolo[4,3-a]pyrazin-7(8H)-yl)methanone] |
| > 6.30 | COCC1CCCCN1c1nc(-c2nnc3n2CCN(C(=O)c2ccc(-c4cccs4)cc2)C3)cs1 (stereo not drawn) [Compound 279, (3-(2-(2-(methoxymethyl)piperidin-1-yl)thiazol-4-yl)-5,6-dihydro-[1,2,4]triazolo[4,3-a]pyrazin-7(8H)-yl)(4-(thiophen-2-yl)phenyl)methanone] |
| > 6.30 | CC(C)(C)OC(=O)NCCOc1ccccc1-c1nc(-c2nnc3n2CCN(C(=O)c2ccc(-c4cccs4)cc2)C3)cs1 [Compound 280, tert-butyl(2-(2-(4-(7-(4-(thiophen-2-yl)benzoyl)-5,6,7,8-tetrahydro-[1,2,4]triazolo[4,3-a]pyrazin-3-yl)thiazol-2-yl)phenoxy)ethyl)carbamate] |
| 6.00 to 6.30 | NCCOc1ccccc1-c1nc(-c2nnc3n2CCN(C(=O)c2ccc(-c4cccs4)cc2)C3)cs1 [Compound 282, (3-(2-(2-(2-aminoethoxy)phenyl)thiazol-4-yl)-5,6-dihydro-[1,2,4]triazolo[4,3-a]pyrazin-7(8H)-yl)(4-(thiophen-2-yl)phenyl)methanone] |
| > 6.30 | O=C(c1ccc(-c2cccs2)cc1)N1CCn2c(nnc2-c2cc(-c3ccccc3)nn2CCO)C1 [Compound 284, (3-(1-(2-hydroxyethyl)-3-phenyl-1H-pyrazol-5-yl)-5,6-dihydro-[1,2,4]triazolo[4,3-a]pyrazin-7(8H)-yl)(4-(thiophen-2-yl)phenyl)methanone] |
